From ChEMBL document CHEMBL2331380, “Evaluation of potential Myt1 kinase inhibitors by TR-FRET based binding assay” (Eur J Med Chem, 2013) come the findings set out here.

Assay [1] can be described thus: Binding affinity to human full-length His-tagged Myt1 kinase expressed in HEK293 cells at 30 ug/ml by TR-FRET based binding assay. For orientation: In TR-FRET formats the signal depends on donor and acceptor labels being close together.
The nature of assay [2]: Binding affinity to human full-length His-tagged Myt1 kinase expressed in HEK293 cells at 3 ug/ml by TR-FRET based binding assay.

The structures appear in SMILES notation.

As to `CCCCCCCC(=O)NC[C@H]1O[C@@H](OC[C@@H](COC(=O)CCCCCCC)OC(=O)CCCCCCC)[C@H](O)[C@@H](O)[C@@H]1O`, the Activity in assay [1] and in assay [2] was less than 5% each time.

In the case of `CCCCCCCCCCCCCCCC(=O)NC[C@H]1O[C@H](OC[C@@H](COC(=O)CCCCCCCCCCCCCCC)OC(=O)CCCCCCCCCCCCCCC)[C@H](O)[C@@H](O)[C@@H]1O`, the Activity in assay [1] and in assay [2] was less than 5% each time.

Turning to `CCCCCCCCCCCCCCCC(=O)NC[C@H]1O[C@@H](OC[C@@H](COC(=O)CCCCCCCCCCCCCCC)OC(=O)CCCCCCCCCCCCCCC)[C@H](O)[C@@H](O)[C@@H]1O`, the Activity in assay [1] and in assay [2] was less than 5% in each case.

Turning to `CCCCCCCCCCCCCCCC(=O)NC[C@H]1O[C@@H](OC[C@@H](COC(=O)CCCCCCCCCCCCCCC)OC(=O)CCCCCCCCCCCCCCC)[C@@H](O)[C@@H](O)[C@@H]1O`, the results for the Activity in assay [1] and in assay [2] were 7.53% and less than 5%, respectively.

`CCCCCCCCCCCCCCCC(=O)NC[C@H]1O[C@H](OC[C@@H](COC(=O)CCCCCCCCCCCCCCC)OC(=O)CCCCCCCCCCCCCCC)[C@@H](O)[C@@H](O)[C@@H]1O`: the Activity in assay [1] and in assay [2] was less than 5% in each case.

Take `CCCCCCCCCCCCCCCC(=O)NC[C@H]1O[C@@H](OC[C@@H](COC(=O)CCCCCCCCCCCCCCC)OC(=O)CCCCCCCCCCCCCCC)[C@H](O)[C@@H](O)[C@H]1O`: the Activity in assay [1] and in assay [2] was less than 5% in each case.

Turning to `CCCCCCCCCCCCCCCC(=O)NC[C@H]1O[C@H](OC[C@@H](COC(=O)CCCCCCCCCCCCCCC)OC(=O)CCCCCCCCCCCCCCC)[C@H](O)[C@@H](O)[C@H]1O`, the Activity in assay [1] and in assay [2] was less than 5% in each case.
